Data as given in patent US20060251597A1, “ANTI-ODOR COMPOSITIONS AND THERAPEUTIC USE” (priority 2005, published 2006).
Counter-ions that a name gives are not always drawn. *1 amine or outer side, *2 acyl side, *3 side chain or, on linkers, in order; H or OH if unused. Where a SMILES comes first, the peptide text is derived from it. [ ]: non-standard residue; d: D form. γGlu = O=C(O)[C@H](CCC(=O)[*:2])N[*:1]

Assays:
[1] = anti-odor test, panel by sniffing: thiol or similar malodor compound in anhydrous composition
Experimental: In the same manner, the degree of reducing the presence or preventing the production of malodor generated by a thiol or similar malodor compounds in an anhydrous composition containing a solvent or ingredient of the present embodiments was judged by three-member panel through olfactory sensor by sniffing as (a) no difference from control, (b) slight malodor, (c) trace malodor, and (d) no malodor. In an initial test, a solvent or liquid ingredient of the present embodiments at 4.5 ml was added to a test tube, and a thiol or similar malodor compounds 0.5 g was added to make 10% thiol or similar malodor compounds in the solution. The control solution was prepared by dissolving a thiol or similar malodor compounds 0.5 g in water 4.5 ml to make 10% aqueous solution. The above test solutions including the control solutions were judged by the panel for the anti-odor effect and the degree of reducing the presence or preventing the production of malodor was recorded in the same way as (a) no effect (no difference from control), (b) slight malodor (50% effective), (c) trace malodor (90% effective), and (d) no malodor (completely effective).

[2] = anti-odor test, panel by sniffing: N-acetyl-L-cysteine dissolved in a single solvent or liquid ingredient (anhydrous composition); conditions: for anti-odor effect: 10% N-acetyl-L-cysteine and 90% solvent or liquid ingredient
Experimental: An anti-odor test was carried out in an anhydrous solvent according to the following example. In a series of test tubes, 4.5 ml of a solvent was added to a test tube such that each test tube comprised a single solvent. The solvents added to the test tubes included water, ethanol, acetone, n-propanol, isopropyl alcohol, propylene glycol, butylenes glycol, benzyl alcohol, ethoxydiglycol, 2-ethyl-1,3-hexanediol. N-Acetyl-L-cysteine (MW 163) 0.5 g was then added and dissolved in each solvent. The test tubes were warmed slightly to enhance dissolution of N-acetyl-L-cysteine crystals. Each test tube contained 10% N-acetyl-L-cysteine and 90% solvent.
An anti-odor test was carried out in an anhydrous composition according to the following example. In a series of test tubes, 4.5 ml of a liquid ingredient was added to a test tube such that each test tube comprised a single liquid ingredient. The liquid ingredients added to a test tube included ethyl glycolate, ethyl-L-lactate, diethyl tartrate, triethyl citrate, tripropyl citrate, ethyl-DL-mandelate, benzyl N-acetyl-prolinate, ethyl N-acetyl-prolinate, propyl N-acetyl-prolinate. N-Acetyl-L-cysteine (MW 163) 0.5 g was then added and dissolved in each liquid ingredient. The test tubes were warmed slightly to enhance dissolution of N-acetyl-L-cysteine crystals. Each test tube contained 10% N-acetyl-L-cysteine and 90% liquid ingredient. The panel judged the anti-odor effect in each test tube.

[3] = panel sniff tests of solvents, ingredients and amines against thiol malodor (general statements); conditions: solvent or ingredient, based on the panel tests
Experimental: Initially, a malodor compound such as about 5% by weight was prepared in water solution or in oil-in-water emulsion. A sulfone or organic amine of the present embodiments was added at various concentrations for example, ranging from about 2%, 1%, 0.5% and 0.1% to the formulations containing the malodor substance. The composition containing the malodor substance without a sulfone or organic amine was used as the control.

[4] = 10% malodor compound in anhydrous solution of isopropyl alcohol 50 parts, diethyl tartarate 25 parts, triethyl citrate 25 parts v/v
[5] = 2% malodor compound in anhydrous solution of isopropyl alcohol 50 parts, diethyl tartarate 25 parts, triethyl citrate 25 parts v/v

| Structure (SMILES) | prevention of malodor produced by a thiol or similar malodor compounds [3] | anti-odor effect [2] | other results |
| --- | --- | --- | --- |
| CCOC(=O)CNC(=O)[C@H](CS)NC(=O)CC[C@H](N)C(=O)OCC [L-Glutathione diethyl ester] |  |  | malodor as judged by panel [1, 4]: did not have any malodor |
| CCOC(=O)[C@H](CSC(C)=O)NC(C)=O [N,S-Diacetyl-L-cysteine ethyl ester] |  |  | malodor as judged by panel [1, 4]: did not have any malodor |
| COC(=O)[C@H](CSC(C)=O)NC(C)=O [N,S-Diacetyl-L-cysteine methyl ester] |  |  | malodor as judged by panel [1, 4]: did not have any malodor |
| CCOC(=O)CNC(=O)[C@H](CS)NC(=O)CC[C@H](NC(C)=O)C(=O)OCC [N-Acetyl-L-glutathione diethyl ester] |  |  | malodor as judged by panel [1, 4]: did not have any malodor; malodor as judged by panel ([1]; 10% malodor compound in diethyl tartarate, anhydrous): did not have any malodor |
| CC(=O)N[C@@H](CCC(=O)N[C@@H](CS)C(=O)NCC(=O)O)C(=O)O [N-Acetyl-L-glutathione] (Ac-[γGlu]-Cys-Gly-OH) |  |  | malodor as judged by panel [1, 5]: did not have any malodor |
| CCC(=O)N[C@@H](CS)C(=O)O [N-Propanoyl-L-cysteine] |  |  | malodor as judged by panel [1, 5]: did not have any malodor |
| OCCCCO [butylene glycol] | effectively prevent malodor |  | suppression of the malodor, judged by panel ([2]; 10% N-acetyl-L-cysteine and 90% solvent): did not suppress the malodor |
| CCOC(=O)C(O)C(O)C(=O)OCC (stereo not drawn) [diethyl tartrate] | effectively prevent malodor | 100% |  |
| CCOCCOCCO [ethoxydiglycol] | effectively prevent malodor | 100% |  |
| CCOC(=O)[C@@H]1CCCN1C(C)=O [ethyl N-acetyl-prolinate] | effectively prevent malodor | 100% |  |
| CCOC(=O)CO [ethyl glycolate] | effectively prevent malodor | 100% |  |
| CC(C)O [isopropyl alcohol] | effectively prevent malodor | 100% |  |
| CCCO [n-propanol] | effectively prevent malodor | 100% |  |
| CCCOC(=O)[C@@H]1CCCN1C(C)=O [propyl N-acetyl-prolinate] | effectively prevent malodor | 100% |  |
| CCOC(=O)CC(O)(CC(=O)OCC)C(=O)OCC [triethyl citrate] | effectively prevent malodor | 100% |  |
| CCCOC(=O)CC(O)(CC(=O)OCCC)C(=O)OCCC [tripropyl citrate] | effectively prevent malodor | 100% |  |
